From patent EP1027361B1, “6,11-BRIDGED ERYTHROMYCIN DERIVATIVES” (Abbott Laboratories, priority 1997, dated 1999)

Key:
Assay in all cases: in vitro antibacterial activity, agar dilution MIC
Assay type in all cases: cell-based
Escherichia coli DC-2 = settings: organism code SS, BHI agar, 35-37 °C, 20 to 24 hours
Procedure: (§1) Representative compounds of the present invention were assayed in vitro for antibacterial activity as follows: Twelve petri dishes containing successive aqueous dilutions of the test compound mixed with 10 mL of sterilized Brain Heart Infusion (BHI) agar (Difco 0418-01-5) were prepared. Each plate was inoculated with 1:100 (or 1:10 for slow-growing strains, such as Micrococcus and Streptococcus) dilutions of up to 32 different microorganisms, using a Steers replicator block. […] In addition, a control plate, using BHI agar containing no test compound, was prepared and incubated at the beginning and end of each test
(§2) An additional plate containing a compound having known susceptibility patterns for the organisms being tested and belonging to the same antibiotic class as the test compound was also prepared and incubated as a further control, as well as to provide test-to-test comparability.
(§3) After incubation, each plate was visually inspected. The minimum inhibitory concentration (MIC) was defined as the lowest concentration of drug yielding no growth, a slight haze, or sparsely isolated colonies on the inoculum spot as compared to the growth control.

[1] = test system: Streptococcus pyogenes PIU 2548; settings: organism code NN, BHI agar, 35-37 °C, 20 to 24 hours
Procedure: as §1, §2, §3

[2] = test system: Streptococcus Pheumoniae 5979; settings: organism code ZZ, BHI agar, 35-37 °C, 20 to 24 hours
Procedure: as §1, §2, §3

[3] = test system: Staphylococcus aureus 1775; settings: organism code GG, BHI agar, 35-37 °C, 20 to 24 hours
Procedure: as §1, §2, §3

[4] = test system: Staphylococcus aureus A-5278; settings: organism code CC, BHI agar, 35-37 °C, 20 to 24 hours
Procedure: as §1, §2, §3

[5] = test system: Streptococcus pyogenes 930; settings: organism code MM, BHI agar, 35-37 °C, 20 to 24 hours
Procedure: as §1, §2, §3

Candida albicans CCH 442 = settings: organism code TT, BHI agar, 35-37 °C, 20 to 24 hours
Procedure: as §1, §2, §3

[6] = test system: Mycobacterium smegmatis ATCC 114; set-up: unit not given here; settings: organism code UU, BHI agar, 35-37 °C, 20 to 24 hours
Procedure: as §1, §2, §3

[7] = test system: Staphylococcus aureus A5177; set-up: unit not given here; settings: organism code BB, BHI agar, 35-37 °C, 20 to 24 hours
Procedure: as §1, §2, §3

[8] = test system: Enterococcus faecium ATCC 8043; settings: organism code II, BHI agar, 35-37 °C, 20 to 24 hours
Procedure: (§4) Erythromycin A was used for this purpose.
(§5) After incubation, each plate was visually inspected.

Escherichia coli JUHL = settings: organism code QQ, BHI agar, 35-37 °C, 20 to 24 hours
Procedure: as §4, §5

[9] = test system: Micrococcus luteus ATCC 9341; settings: organism code OO, BHI agar, 35-37 °C, 20 to 24 hours
Procedure: as §4, §5

[10] = test system: Staphylococcus epidermidis 3519; settings: organism code HH, BHI agar, 35-37 °C, 20 to 24 hours
Procedure: as §4, §5

[11] = test system: Staphylococcus aureus CMX 553; settings: organism code FF, BHI agar, 35-37 °C, 20 to 24 hours
Procedure: as §4, §5

[12] = test system: Haemophilis Influenzae DILL AMP R; settings: organism code WW, BHI agar, 35-37 °C, 20 to 24 hours
Procedure: as §4, §5

Escherichia coli SS = settings: organism code RR, BHI agar, 35-37 °C, 20 to 24 hours
Procedure: as §4, §5

[13] = test system: Nocardia Asteroides ATCC9970; settings: organism code VV, BHI agar, 35-37 °C, 20 to 24 hours
Procedure: as §4, §5

[14] = test system: Streptococcus Pheumoniae GYR 1171; settings: organism code YY, BHI agar, 35-37 °C, 20 to 24 hours
Procedure: as §4, §5

[15] = test system: Staphylococcus aureus CMX 642A; settings: organism code DD, BHI agar, 35-37 °C, 20 to 24 hours
Procedure: as §4, §5

[16] = test system: Streptococcus Pheumoniae 5649; settings: organism code ZZA, BHI agar, 35-37 °C, 20 to 24 hours
Procedure: as §4, §5

[17] = test system: Micrococcus luteus ATCC 4698; settings: organism code PP, BHI agar, 35-37 °C, 20 to 24 hours
Procedure: as §4, §5

[18] = test system: Staphylococcus aureus NCTC10649M; settings: organism code EE, BHI agar, 35-37 °C, 20 to 24 hours
Procedure: as §4, §5

[19] = test system: Streptococcus bovis A-5169; set-up: unit not given here; settings: organism code JJ, BHI agar, 35-37 °C, 20 to 24 hours
Procedure: as §4, §5

[20] = test system: Streptococcus pyogenes EES61; set-up: unit not given here; settings: organism code LL, BHI agar, 35-37 °C, 20 to 24 hours
Procedure: as §4, §5

[21] = test system: Staphylococcus aureus ATCC 6538P; set-up: unit not given here; settings: organism code AA, BHI agar, 35-37 °C, 20 to 24 hours
Procedure: as §4, §5

[22] = test system: Streptococcus Pheumoniae ATCC6303; set-up: unit not given here; settings: organism code XX, BHI agar, 35-37 °C, 20 to 24 hours
Procedure: as §4, §5

[23] = test system: Streptococcus agalactiae CMX 508; set-up: unit not given here; settings: organism code KK, BHI agar, 35-37 °C, 20 to 24 hours
Procedure: as §4, §5

| Structure (SMILES) | minimum inhibitory concentration (MIC) (Escherichia coli DC-2) | minimum inhibitory concentration (MIC) [1] | minimum inhibitory concentration (MIC) [2] | minimum inhibitory concentration (MIC) [3] | minimum inhibitory concentration (MIC) [4] | minimum inhibitory concentration (MIC) [5] | minimum inhibitory concentration (MIC) (Candida albicans CCH 442) | minimum inhibitory concentration (MIC) [6] | minimum inhibitory concentration (MIC) [7] | minimum inhibitory concentration (MIC) [8] | minimum inhibitory concentration (MIC) (Escherichia coli JUHL) | minimum inhibitory concentration (MIC) [9] | minimum inhibitory concentration (MIC) [10] | minimum inhibitory concentration (MIC) [11] | minimum inhibitory concentration (MIC) [12] | minimum inhibitory concentration (MIC) (Escherichia coli SS) | minimum inhibitory concentration (MIC) [13] | minimum inhibitory concentration (MIC) [14] | minimum inhibitory concentration (MIC) [15] | minimum inhibitory concentration (MIC) [16] | other results |
| --- | --- | --- | --- | --- | --- | --- | --- | --- | --- | --- | --- | --- | --- | --- | --- | --- | --- | --- | --- | --- | --- |
| CC[C@H]1OC(=O)[C@H](C)C(=O)[C@H](C)[C@@H](O[C@@H]2O[C@H](C)C[C@H](N(C)C)[C@H]2O)[C@@]2(C)C[C@@H](C)C(=O)[C@H](C)[C@H]3N(CCC=CCO2)C(=O)O[C@]13C [Example 18, Compound of Formula (II), R^p is H, m is 2, A is absent, B is absent, D is absent, E is-(CH2)r-CH=CH-, r is 0, n is 1] | >100 | 1.56 | >128 | >100 | >100 | >100 | >100 | 12.5 | 0.78 | 0.39 | >100 | 0.39 | 1.56 | 0.78 | 128 | 1.56 | 0.78 | 0.5 | 0.78 | 2 | minimum inhibitory concentration (MIC) [17]: 0.78; minimum inhibitory concentration (MIC) [18]: 0.78; minimum inhibitory concentration (MIC) [19]: 0.2; minimum inhibitory concentration (MIC) [20]: 0.2; minimum inhibitory concentration (MIC) [21]: 0.78; minimum inhibitory concentration (MIC) [22]: 1; minimum inhibitory concentration (MIC) [23]: 0.2 |
| CC[C@H]1OC(=O)[C@H](C)[C@@H](O[C@H]2C[C@@](C)(OC)[C@@H](O)[C@H](C)O2)[C@H](C)[C@@H](O[C@@H]2O[C@H](C)C[C@H](N(C)C)[C@H]2O)[C@@]2(C)C[C@@H](C)C(=O)[C@H](C)[C@H]3N(CC(O)CC=CCO2)C(=O)O[C@]13C (stereo partly drawn) [Example 19, Compound of Formula (I), R^p is H, m is 1, A is absent, B is -CHOH-(CH2)q-, q is 1, D is absent, E is -(CH2)r-CH=CH-, r is 0, n is 1] | >100 | 12.5 | >128 | >100 | >100 | >100 | >100 | 0.39 | 3.1 | 0.1 | 25 | 0.05 | 0.78 | 0.78 | 8 | 0.78 | 0.05 | 0.03 | 0.78 | 16 | minimum inhibitory concentration (MIC) [17]: 0.78; minimum inhibitory concentration (MIC) [18]: 0.78; minimum inhibitory concentration (MIC) [19]: 0.02; minimum inhibitory concentration (MIC) [20]: 0.05; minimum inhibitory concentration (MIC) [21]: 0.39; minimum inhibitory concentration (MIC) [22]: 0.03; minimum inhibitory concentration (MIC) [23]: 0.05 |
